From ChEMBL document CHEMBL4613295, “Pyrrolyl Pyrazoles as Non-Diketo Acid Inhibitors of the HIV-1 Ribonuclease H Function of Reverse Transcriptase” (ACS Med Chem Lett, 2020)
Values belong to the molecule of their own block, whether it stands above or below them. Active and inactive are the calls of the source. The rule behind the calls is not given here.

Legend:
[1] = target: T1, Human immunodeficiency virus type 1 reverse transcriptase (Human immunodeficiency virus 1, UniProt Q72547); test: Inhibition of RNase H activity of recombinant His-tagged HIV-1 group M subtype B reverse transcriptase p66/p51 expressed in Escherichia coli M15 using 18-nucleotide 3'-fluorescein-labeled RNA/5'-dabcyl-labeled DNA hybrid as substrate incubated for 1 hr; parameters: species or system HIV-1 M:B
HIV-1 M:B [2] = test: Selectivity index, ratio of IC50 for recombinat HIV-1 group M subtype B His-tagged reverse transcriptase p66 N474A mutant expressed in Escherichia coli M15 to IC50 for RNase H activity of recombinant His-tagged HIV-1 group M subtype B reverse transcriptase p66/p51 expressed in Escherichia coli M15 …
HIV-1 M:B [3] = test: Selectivity index, ratio of IC50 for recombinat HIV-1 group M subtype B His-tagged reverse transcriptase p66 Q475A mutant expressed in Escherichia coli M15 to IC50 for RNase H activity of recombinant His-tagged HIV-1 group M subtype B reverse transcriptase p66/p51 expressed in Escherichia coli M15 …
[4] = system: Human immunodeficiency virus type 1 reverse transcriptase (Human immunodeficiency virus 1), Q72547 [K540A]; test: Inhibition of recombinat HIV-1 group M subtype B His-tagged reverse transcriptase p66 K540A mutant expressed in Escherichia coli M15; settings: HIV-1 M:B
HIV-1 M:B [5] = test: Selectivity index, ratio of IC50 for recombinat HIV-1 group M subtype B His-tagged reverse transcriptase p66 Y501A mutant expressed in Escherichia coli M15 to IC50 for RNase H activity of recombinant His-tagged HIV-1 group M subtype B reverse transcriptase p66/p51 expressed in Escherichia coli M15 …
[6] = target: T1, Human immunodeficiency virus type 1 reverse transcriptase; test: Inhibition of RNase H activity of recombinant HIV-1 reverse transcriptase p66/p51 expressed in Escherichia coli M15 using 5'-[gamma32P]ATP-labeled-tC5U RNA oligonucleotide/p12 DNA oligonucleotide hybrid as substrate incubated for 30 mins
HIV-1 M:B [7] = test: Selectivity index, ratio of IC50 for recombinat HIV-1 group M subtype B His-tagged reverse transcriptase p66 W535A mutant expressed in Escherichia coli M15 to IC50 for RNase H activity of recombinant His-tagged HIV-1 group M subtype B reverse transcriptase p66/p51 expressed in Escherichia coli M15 …
[8] = Cytotoxicity against human HeLa cells expressing CD4-LTR-beta-gal assessed as reduction in cell viability measured after 24 hrs by CellTiter96 AQueous one solution cell proliferation assay; format: cell-based
[9] = system: Human immunodeficiency virus 1; test: Selectivity index, ratio of IC50 for wild type HIV1 subtype B NL4-3 6xHis-tagged integrase expressed in Escherichia coli BL21 (DE3) using DNA as substrate preincubated with enzyme for 1 hr followed by addition of recombinant 6xHis-tagged LEDGF/p75 expressed in Escherichia coli BL21 (DE3), DNA donor …
[10] = system: Human immunodeficiency virus type 1 reverse transcriptase (Human immunodeficiency virus 1), Q72547 [R448A]; test: Inhibition of recombinat HIV-1 group M subtype B His-tagged reverse transcriptase p66 R448A mutant expressed in Escherichia coli M15; settings: HIV-1 M:B
[11] = Selectivity index, ratio of CC50 for human HeLa cells expressing CD4-LTR-beta-gal assessed as reduction in cell viability measured after 24 hrs by CellTiter96 AQueous one solution cell proliferation assay to EC50 for HIV1 infected in human HeLa-CD4-LTR-betagal cells measured after 24 hrs by fluorescence based analysis; format: toxicity; settings: read-out: Ratio CC50/EC50
[12] = system: Human immunodeficiency virus 1; test: Antiviral activity against HIV1 infected in human HeLa-CD4-LTR-betagal cells assessed as inhibition of viral replication measured after 24 hrs by fluorescence based analysis; format: functional, organism-based; settings: Human immunodeficiency virus 1, 24 h
[13] = system: Human immunodeficiency virus type 1 reverse transcriptase (Human immunodeficiency virus 1), Q72547 [K451A]; test: Inhibition of recombinat HIV-1 group M subtype B His-tagged reverse transcriptase p66 K451A mutant expressed in Escherichia coli M15; settings: HIV-1 M:B
[14] = Stability of compound in 90% human serum at 5 mM and 37 degree C measured after 3 hrs by ESI-RP-HPLC analysis; format: ADME, cell-free; settings: 5000 µM
[15] = Drug metabolism in 90% human serum assessed as retro-Claisen adduct derived 1-(1-(4-fluorobenzyl)-4-phenyl-1H-pyrrol-3-yl)ethanone metabolite formation at 5 mM and 37 degree C measured after 3 hrs by ESI-RP-HPLC analysis; format: ADME, cell-free; settings: 5000 µM
[16] = target: Human immunodeficiency virus type 1 integrase (Human immunodeficiency virus 1, UniProt Q7ZJM1); test: Inhibition of wild type HIV1 subtype B NL4-3 6xHis-tagged integrase expressed in Escherichia coli BL21 (DE3) assessed as inhibition of 3'-processing and strand-transfer reactions using DNA as substrate preincubated with enzyme for 1 hr followed by addition of recombinant 6xHis-tagged LEDGF/p75 expressed in Escherichia coli BL21 (DE3), DNA donor substrate and DNA acceptor substrate and further …
Chain of Human immunodeficiency virus type 1 integrase (Q7ZJM1 whole entry): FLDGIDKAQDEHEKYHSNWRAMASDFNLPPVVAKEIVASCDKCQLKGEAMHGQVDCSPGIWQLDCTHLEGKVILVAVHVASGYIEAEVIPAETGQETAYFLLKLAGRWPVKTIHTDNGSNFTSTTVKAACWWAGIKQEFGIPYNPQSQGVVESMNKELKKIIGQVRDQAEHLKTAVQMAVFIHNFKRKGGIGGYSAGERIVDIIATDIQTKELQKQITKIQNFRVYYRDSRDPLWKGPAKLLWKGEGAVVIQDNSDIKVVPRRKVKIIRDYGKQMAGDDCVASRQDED

SMILES: O=C(O)c1cc(-c2cn(Cc3ccc(F)cc3)cc2-c2ccc(OCc3ccccc3)cc2)n[nH]1
- IC50 [1]: 3.21 µM

SMILES: CCOC(=O)/C(O)=C/C(=O)/C=C/c1cccn1Cc1ccccc1Cl
- Ratio IC50 (HIV-1 M:B [2]): > 5
- Ratio IC50 (HIV-1 M:B [3]): > 5
- inhibition [4]: Active
- Ratio IC50 (HIV-1 M:B [5]): > 5
- IC50 [6]: 7.3 µM
- Ratio IC50 (HIV-1 M:B [7]): > 5

SMILES: O=C(COc1ccc(-c2cn(Cc3ccc(F)cc3)cc2-c2cc(C(=O)O)[nH]n2)cc1)Nc1ccccc1
- IC50 [1]: 23 µM

SMILES: O=C(O)c1cc(-c2cn(CCCCc3ccccc3)cc2-c2ccccc2)n[nH]1
- IC50 [1]: 63 µM

SMILES: CCOC(=O)c1cc(-c2cn(Cc3ccc(F)cc3)cc2-c2ccc3ccccc3c2)n[nH]1
- Ratio IC50 (HIV-1 M:B [2]): > 5
- CC50 at 24 h [8]: > 200 µM
- Ratio IC50 [9]: > 10.6
- Ratio IC50 (HIV-1 M:B [3]): > 5
- inhibition [4]: inactive
- inhibition [10]: inactive
- Ratio IC50 (HIV-1 M:B [5]): > 5
- selectivity ratio at 24 h [11]: > 10
- Ratio IC50 (HIV-1 M:B [7]): > 5
- EC50 [12]: 4 to 41 µM
- inhibition [13]: inactive
- IC50 [1]: 9.4 µM

SMILES: O=C(COc1ccc(-c2cn(Cc3ccc(F)cc3)cc2-c2cc(C(=O)O)[nH]n2)cc1)Nc1ccc(C(=O)O)cc1
- IC50 [1]: 70 µM

SMILES: O=C(O)c1cc(-c2cn(Cc3ccc(F)cc3)cc2-c2ccc(OCc3cccc4ccccc34)cc2)n[nH]1
- IC50 [1]: 4.5 µM

SMILES: CCOC(=O)c1cc(-c2cn(Cc3ccc(F)cc3)cc2-c2ccc(OCC(=O)Nc3ccccc3)cc2)n[nH]1
- IC50 [1]: 6.8 µM

SMILES: CCOC(=O)c1cc(C)n[nH]1
- IC50 [1]: > 100 µM

SMILES: O=C(O)c1cc(-c2cn(Cc3ccc(F)cc3)cc2-c2ccccc2)n[nH]1
- Stability [14]: Stable
- IC50 [1]: 75 µM

SMILES: O=C(O)c1cc(-c2ccccc2-c2ccccc2)n[nH]1
- IC50 [1]: > 100 µM

SMILES: CCOC(=O)c1cc(-c2cn(Cc3ccc(F)cc3)cc2-c2ccc(OCCCCCc3ccccc3)cc2)n[nH]1
- IC50 [1]: 25.8 µM

SMILES: CCOC(=O)c1cc(-c2ccccc2-c2ccccc2)n[nH]1
- IC50 [1]: > 100 µM

- Drug metabolism [15]: Metabolite_Detected
- Stability [14]: Unstable
SMILES: O=C(O)/C(O)=C/C(=O)c1cn(Cc2ccc(F)cc2)cc1-c1ccccc1

SMILES: CCOC(=O)c1cc(-c2cc[nH]c2)n[nH]1
- IC50 [1]: > 100 µM

- Drug metabolism [15]: Metabolite_Detected
- Stability [14]: Unstable
SMILES: CCOC(=O)/C(O)=C/C(=O)c1cn(Cc2ccc(F)cc2)cc1-c1ccccc1

SMILES: CCOC(=O)c1cc(-c2ccccc2)[nH]n1
- IC50 [1]: > 100 µM

SMILES: Cn1cc(-c2ccccc2)c(-c2cc(C(=O)O)[nH]n2)c1
- IC50 [1]: > 100 µM

SMILES: O=C(COc1ccc(-c2cn(Cc3cccc4ccccc34)cc2-c2cc(C(=O)O)[nH]n2)cc1)Nc1ccccc1
- IC50 [1]: 5.8 µM

SMILES: O=C(O)c1cc(-c2c[nH]cc2-c2ccccc2)n[nH]1
- IC50 [1]: > 100 µM

SMILES: O=C(O)c1cc(-c2ccccc2)n[nH]1
- IC50 [1]: > 100 µM

SMILES: CCOC(=O)c1cc(-c2cn(CCCCc3ccccc3)cc2-c2ccccc2)n[nH]1
- IC50 [1]: 97 µM

SMILES: O=C(O)c1cc(-c2cn(Cc3ccc(F)cc3)cc2-c2ccc(OCCCCc3ccccc3)cc2)n[nH]1
- IC50 [1]: 0.27 µM

SMILES: CCOC(=O)c1cc(-c2c[nH]cc2-c2ccccc2)n[nH]1
- IC50 [1]: > 100 µM

SMILES: CCOC(=O)c1cc(-c2cn(Cc3ccc(F)cc3)cc2-c2ccc(OCc3cccc4ccccc34)cc2)n[nH]1
- IC50 [1]: 5.5 µM

SMILES: CCOC(=O)c1cc(-c2cn(Cc3cccc4ccccc34)cc2-c2ccc(OCc3cccc4ccccc34)cc2)n[nH]1
- IC50 [1]: 4.15 µM

SMILES: CCOC(=O)c1cc(-c2cn(Cc3cccc4ccccc34)cc2-c2ccc(OCC(=O)Nc3ccccc3)cc2)n[nH]1
- IC50 [1]: 7.9 µM

SMILES: CCOC(=O)c1cc(-c2cn(Cc3ccc(F)cc3)cc2-c2ccccc2)n[nH]1
- Ratio IC50 (HIV-1 M:B [2]): > 5
- IC50 [16]: 75 µM
- Ratio IC50 [9]: 5
- Ratio IC50 (HIV-1 M:B [3]): > 5
- inhibition [4]: inactive
- inhibition [10]: inactive
- Ratio IC50 (HIV-1 M:B [5]): > 5
- Ratio IC50 (HIV-1 M:B [7]): > 5
- EC50 [12]: 4 µM
- Stability [14]: Stable
- inhibition [13]: Active
- IC50 [1]: 14.3 µM

SMILES: CCOC(=O)c1cc(-c2cn(C)cc2-c2ccccc2)n[nH]1
- IC50 [1]: > 100 µM

SMILES: O=C(O)c1cc(-c2cn(Cc3cccc4ccccc34)cc2-c2ccc(OCCCCc3ccccc3)cc2)n[nH]1
- IC50 [1]: 2.38 µM

SMILES: O=C(O)c1cc(-c2cn(Cc3cccc4ccccc34)cc2-c2ccc(OCc3cccc4ccccc34)cc2)n[nH]1
- IC50 [1]: 1.73 µM

SMILES: O=C(O)c1cc(-c2ccn(Cc3ccc(F)cc3)c2)n[nH]1
- IC50 [1]: > 100 µM

SMILES: O=C(O)c1cc(-c2cn(Cc3ccc(F)cc3)cc2-c2ccc(OCCCCCc3ccccc3)cc2)n[nH]1
- IC50 [1]: 9.2 µM

SMILES: CCOC(=O)c1cc(-c2cn(Cc3ccc(F)cc3)cc2-c2ccc(OCC(=O)Nc3ccc(C(=O)O)cc3)cc2)n[nH]1
- IC50 [1]: 8.1 µM

SMILES: O=C(O)c1cc(-c2cn(Cc3ccc(F)cc3)cc2-c2ccc3ccccc3c2)n[nH]1
- IC50 [1]: 13.7 µM

SMILES: CCOC(=O)c1cc(-c2cn(Cc3cccc4ccccc34)cc2-c2ccccc2)n[nH]1
- IC50 [1]: 9.4 µM

SMILES: O=C(O)c1cc(-c2cc[nH]c2)n[nH]1
- IC50 [1]: > 100 µM

SMILES: Cc1cc(C(=O)O)n[nH]1
- IC50 [1]: > 100 µM

SMILES: O=C(O)c1cc(-c2cn(Cc3cccc4ccccc34)cc2-c2ccccc2)n[nH]1
- IC50 [1]: 25.3 µM

SMILES: CCOC(=O)c1cc(-c2cn(Cc3ccc(F)cc3)cc2-c2ccc(OCCCCc3ccccc3)cc2)n[nH]1
- Ratio IC50 (HIV-1 M:B [2]): > 5
- CC50 at 24 h [8]: > 200 µM
- Ratio IC50 [9]: > 5.6
- Ratio IC50 (HIV-1 M:B [3]): > 5
- inhibition [4]: inactive
- inhibition [10]: inactive
- Ratio IC50 (HIV-1 M:B [5]): > 5
- selectivity ratio at 24 h [11]: > 10
- Ratio IC50 (HIV-1 M:B [7]): > 5
- EC50 [12]: 4 to 41 µM
- inhibition [13]: inactive
- IC50 [1]: 17.8 µM

SMILES: CCOC(=O)c1cc(-c2cn(Cc3ccc(F)cc3)cc2-c2ccc(OCc3ccccc3)cc2)n[nH]1
- Ratio IC50 (HIV-1 M:B [2]): > 5
- Ratio IC50 [9]: > 18.5
- Ratio IC50 (HIV-1 M:B [3]): > 5
- inhibition [4]: inactive
- inhibition [10]: inactive
- Ratio IC50 (HIV-1 M:B [5]): > 5
- Ratio IC50 (HIV-1 M:B [7]): > 5
- EC50 [12]: 4 to 41 µM
- inhibition [13]: inactive
- IC50 [1]: 5.4 µM

SMILES: CCOC(=O)c1cc(-c2ccn(Cc3ccc(F)cc3)c2)n[nH]1
- IC50 [1]: > 100 µM

SMILES: CCOC(=O)c1cc(-c2cn(Cc3cccc4ccccc34)cc2-c2ccc(OCCCCc3ccccc3)cc2)n[nH]1
- IC50 [1]: 8.5 µM
